From the supplement of paper PMC10307832

How the values were obtained:
Experiment in all cases: relative viability (nuclei count vs DMSO), 5 days (fraction); higher = more cells survive
[1] = compound: CN1CCC(CC1)OC2=CC(=C(C=C2)NC3=NC=C4C(=N3)N(C(=O)N4C)C5CCCC5)OC [AZ3146] + CCNC(=O)c1noc(-c2cc(C(C)C)c(O)cc2O)c1-c1ccc(CN2CCOCC2)cc1 [Luminespib] (partner 0.01 µM)
Summary of the method: (§1)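 Each reported value is a median over duplicate plates. It expresses relative viability: treated-well nuclei count divided by vehicle-well nuclei count. Lung cancer cell lines in 1536-well plates were dosed by pin tool a day after seeding, alone with one drug or with a fixed anchor-drug dose plus five library-drug doses (not always all listed) in √10 steps, and nuclei were counted after 5 days.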

[2] = compound: CN1CCC(CC1)OC2=CC(=C(C=C2)NC3=NC=C4C(=N3)N(C(=O)N4C)C5CCCC5)OC [AZ3146] + CC1(C)CCC(c2ccc(Cl)cc2)=C(CN2CCN(c3ccc(C(=O)NS(=O)(=O)c4ccc(N[C@H](CCN5CCOCC5)CSc5ccccc5)c(S(=O)(=O)C(F)(F)F)c4)cc3)CC2)C1 [Navitoclax] (partner 0.5 µM)
Summary of the method: as §1

[3] = compound: CN1CCC(CC1)OC2=CC(=C(C=C2)NC3=NC=C4C(=N3)N(C(=O)N4C)C5CCCC5)OC [AZ3146] + Cc1nc(Nc2ncc(C(=O)Nc3c(C)cccc3Cl)s2)cc(N2CCN(CCO)CC2)n1 [Dasatinib] (partner 0.075 µM)
Summary of the method: as §1

[4] = compound: CCOC(=O)CCNc1cc(N2CCc3ccccc3CC2)nc(-c2ccccn2)n1 [GSK-J4] + C[C@@H](Oc1cc(-c2cnn(C3CCNCC3)c2)cnc1N)c1c(Cl)ccc(F)c1Cl [Crizotinib] (partner 1 µM)
Summary of the method: as §1

Cell Line | relative viability ([1]; first compound 0.08 µM) | relative viability ([1]; first compound 0.253 µM) | relative viability ([1]; first compound 0.8 µM) | relative viability ([1]; first compound 2.53 µM) | relative viability ([1]; first compound 8 µM) | relative viability ([2]; first compound 0.08 µM) | relative viability ([2]; first compound 0.253 µM) | relative viability ([2]; first compound 0.8 µM) | relative viability ([2]; first compound 2.53 µM) | relative viability ([2]; first compound 8 µM) | relative viability ([3]; first compound 0.08 µM) | relative viability ([3]; first compound 0.253 µM) | relative viability ([3]; first compound 0.8 µM) | relative viability ([3]; first compound 2.53 µM) | relative viability ([3]; first compound 8 µM) | relative viability ([4]; first compound 0.5 µM) | relative viability ([4]; first compound 1.581 µM) | relative viability ([4]; first compound 5 µM) | relative viability ([4]; first compound 15.81 µM) | relative viability ([4]; first compound 50 µM)
LU99A | 0.247 | 0.236 | 0.327 | 0.262 | 0.477 | 0.698 | 0.764 | 1.01 | 0.868 | 0.834 | 0.645 | 0.528 | 0.464 | 0.56 | 0.606 | 0.571 | 0.534 | 0.618 | 0.581 | 0.474
LXF-289 | 0.643 | 0.691 | 0.705 | 0.772 | 0.787 | 0.94 | 1.03 | 0.883 | 0.943 | 0.926 | 0.276 | 0.241 | 0.172 | 0.227 | 0.18 | 0.71 | 0.768 | 0.776 | 0.806 | 0.753
NCI-H23 | 0.218 | 0.21 | 0.241 | 0.223 | 0.226 | 0.751 | 0.687 | 0.786 | 0.86 | 0.993 | 0.894 | 0.767 | 0.612 | 0.756 | 0.97 | 0.553 |  | 0.456 | 0.413 | 0.422
NCI-H322M | 0.88 | 0.847 | 0.715 | 0.924 | 0.787 | 1.24 | 1.12 | 1.1 | 1.24 | 1.23 | 0.236 | 0.248 | 0.24 | 0.251 | 0.285 | 0.976 | 0.779 | 0.828 | 0.91 | 0.83
NCI-H441 | 0.274 | 0.465 | 0.353 | 0.38 | 0.473 | 0.416 | 0.576 | 0.53 | 0.547 | 0.683 | 0.636 | 0.68 | 0.922 | 0.497 | 0.536 | 0.74 | 0.574 | 0.643 | 0.697 | 0.775
NCI-H460 | 0.0349 | 0.0347 | 0.0408 | 0.0305 | 0.0293 | 1.1 | 1.21 | 1.14 | 1.08 | 0.298 | 0.463 | 0.485 | 0.484 | 0.463 | 0.476 | 0.983 | 0.734 | 0.832 | 0.321 | 0.821
NCI-H520 | 0.243 | 0.214 | 0.223 | 0.255 | 0.248 | 1.18 | 1.06 | 1.04 | 1.1 | 0.981 | 0.166 | 0.171 | 0.197 | 0.592 | 0.19 | 0.737 | 0.633 | 0.846 | 0.805 | 0.553
NCI-H596 | 1.01 | 0.995 | 0.831 | 1.03 | 0.837 | 1.02 | 0.884 | 0.9 | 0.95 | 0.929 | 0.56 | 0.582 | 0.581 | 0.636 | 0.538 | 1.11 | 1.04 | 0.932 | 0.949 | 0.992
NCI-H647 | 0.186 | 0.178 | 0.244 | 0.149 | 0.269 | 1.06 | 1.07 | 1.16 | 1.1 | 0.893 | 0.214 | 0.186 | 0.178 | 0.216 | 0.138 | 1.01 | 0.759 | 0.865 | 0.991 | 1.01
NCI-H727 | 0.465 | 0.796 | 0.458 | 0.34 | 0.302 | 0.501 | 0.476 | 0.431 | 0.436 | 0.413 | 0.418 | 0.378 | 0.324 | 0.362 | 0.384 | 0.782 |  | 1.01 | 0.771 | 0.443
NCI-H838 | 0.31 | 0.284 | 0.281 | 0.273 | 0.264 | 1.12 | 1.19 | 1.17 | 1.13 | 0.93 | 0.408 | 0.303 | 0.269 | 0.331 | 0.269 | 0.85 | 0.845 |  | 0.816 | 0.752
NCI-H1355 | 0.744 | 0.721 | 0.724 | 0.767 | 0.766 | 0.974 | 0.872 | 1.04 | 0.922 | 1.01 | 0.654 | 0.644 | 0.767 | 0.68 | 0.726 | 1.06 | 0.962 | 1.22 | 1.02 | 1.04
NCI-H1437 | 1.12 | 1.15 | 1.11 | 1.15 | 1.07 | 1.02 | 1.09 | 1.07 | 1.13 | 1.14 | 0.327 | 0.373 | 0.447 | 0.368 | 0.51 | 0.76 | 0.917 | 0.924 | 0.897 | 0.436
